SMILES strings stand for the structures. Read-outs that look alike come from different tables or passages of the source.

The values below come from patent US9981928B2, “Aryl sulfide derivatives and aryl sulfoxide derivatives as acaricides and insecticides” (BAYER CROPSCIENCE AKTIENGESELLSCHAFT, priority 2013, dated 2018).

Data set [1] is described as follows: log P determination by HPLC on reversed-phase columns (C 18), analogously to OECD Guideline 117. The data set is classed as physicochemical. Particulars: for chromatographic logP: reversed-phase C18 HPLC column; for logP (HCOOH): LC-MS in the acidic range, pH 2.7, 0.1% aqueous formic acid / acetonitrile; for logP (HCOOH) / logP (neutral): HPLC reversed-phase C 18; for logP (neutral): LC-MS in the neutral range, pH 7.8, 0.001 molar aqueous ammonium hydrogencarbonate / acetonitrile. In outline:
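Reversed-phase C18 HPLC per OECD 117 with LC-MS detection and a linear 10→95% acetonitrile gradient. Acidic log P run at pH 2.7 with 0.1% formic acid in both eluents. Neutral log P run at pH 7.8 with 0.001 M aqueous ammonium hydrogencarbonate.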

Data set [2] has as its system greenhouse red spider mite (Tetranychus urticae). The data set is described as follows: Tetranychus urticae spray test, OP-resistant (TETRUR), bean leaf disks. To be noted: bean leaf disks, after 6 days; for pest or weed control at 500 g/ha: Tetranychus urticae, foliar, 144 h, read-out: efficacy in %. The data set is classed as in vivo. In outline:
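Efficacy (% mites killed) read 6 days after spraying infested Phaseolus vulgaris leaf disks. Compound preparation: acetone and dimethylformamide solvent, made up in water with 1000 ppm alkylaryl polyglycol ether emulsifier; OP-resistant mite strain, all life stages.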

The mark [3] stands for this setting: acidic range, pH 2.7, 0.1% aqueous formic acid and acetonitrile, read-out: log P[a] / log P(HCOOH).
Setting [4] is: neutral range, pH 7.8, 0.001 molar aqueous ammonium hydrogencarbonate and acetonitrile, read-out: log P[b] / log P(neutral).

Turning to `Cc1cc(F)c(N2CCOC2=O)cc1[S+]([O-])CC(F)(F)F` (stereo not drawn) [Example 105, 3-[2-Fluoro-4-methyl-5-(2,2,2-trifluoroethylsulfinyl)phenyl]oxazolidin-2-one], in data set [1] (setting [3]), the chromatographic logP worked out at 1.64. Further, in data set [2] (application rate 500 g/ha), the pest or weed control at 500 g/ha is 90%.
With `Cc1cc(F)c(N2CC(C)OC2=O)cc1[S+]([O-])CC(F)(F)F` (stereo not drawn) [Example 109, 3-[2-Fluoro-4-methyl-5-(2,2,2-trifluoroethylsulfinyl)phenyl]-5-methyloxazolidin-2-one], the chromatographic logP came out at 1.93 in data set [1] (setting [3]) and 1.89 in data set [1] (setting [4]). The pest or weed control at 500 g/ha in data set [2] (application rate 500 g/ha) worked out at 100%.
The corresponding values for `Cc1cc(F)c(-n2c(=O)n(C)n(C)c2=O)cc1[S+]([O-])CC(F)(F)F` (stereo not drawn) [Example 117, 4-{2-Fluoro-4-methyl-5-[(2,2,2-trifluoroethyl)sulfinyl]phenyl}-1,2-dimethyl-1,2,4-triazolidine-3,5-dione] are 1.54, 1.5 and 90%.
Take `Cn1c(=O)n(C2CC2)c(=O)n1-c1ccc(C#N)c([S+]([O-])CC(F)(F)F)c1` (stereo not drawn) [Example 43]: in data set [1], the “logP (HCOOH)” value came out at 1.93 and the “logP (neutral)” value was 1.90. The efficacy in % in data set [2] (application rate 500 g/ha) was determined as 90%.
For `C=CCn1c(=O)n(C)c(=O)n1-c1ccc(C)c(SCC(F)(F)F)c1` [Example 58], in data set [1], the “logP (HCOOH)” value was found to be 3.03 and the “logP (neutral)” value amounted to 2.88. Further, the efficacy in % in data set [2] (application rate 500 g/ha) was determined as 100%.
The matching figures for `CCn1c(=O)n(C)n(-c2ccc(C)c(SCC(F)(F)F)c2)c1=O` [Example 131]: 3.00, 2.97 and 90%.
The corresponding values for `CCn1c(=O)n(-c2cc(SCC(F)(F)F)c(C)cc2F)n(C(C)(C)C)c1=O` [Example 142] are 4.19, 4.13 and 100%.
In the case of `Cn1c(=O)n(C2CC2)c(=O)n1-c1ccc(Cl)c([S+]([O-])CC(F)(F)F)c1` (stereo not drawn) [Example 39], in data set [1], the “logP (HCOOH)” value worked out at 2.20 and the “logP (neutral)” value was found to be 2.17. The efficacy in % in data set [2] (application rate 500 g/ha) came out at 100%.
On to `Cc1cc(F)c(N2C(=O)OC(C)(C)C2=O)cc1SCC(F)(F)F` [Example 111, 3-[2-Fluoro-4-methyl-5-(2,2,2-trifluoroethylsulfanyl)phenyl]-5,5-dimethyloxazolidine-2,4-dione], for which the chromatographic logP in data set [1] (setting [3]) was determined as 3.35. Further, in data set [2] (application rate 500 g/ha), the pest or weed control at 500 g/ha is 90%.
For the compound `CCC1(CC)C(=O)N(C)N(c2cc(SCC(F)(F)F)c(C)cc2F)C1=O` [Example 175], in data set [1], the “logP (HCOOH)” value is on record as 3.41 and the “logP (neutral)” value is listed as 3.40. For the same compound, in data set [2] (application rate 500 g/ha), the efficacy in % is 100%.
In the case of `Cc1cc(C)c([S+]([O-])CC(F)(F)F)cc1N1C(=O)C(=O)N(CC(F)(F)F)C1=S` (stereo not drawn) [Example 188], in data set [1], the “logP (HCOOH)” value worked out at 3.18. This compound also gave an efficacy in % in data set [2] (application rate 500 g/ha) of 90%.
Regarding `C=CCn1c(=O)n(CC(F)(F)F)n(-c2cc(SCC(F)(F)F)c(C)cc2F)c1=O` [Example 154], in data set [1], the “logP (HCOOH)” value turned out to be 3.62 and the “logP (neutral)” value is given as 3.64. The efficacy in % in data set [2] (application rate 500 g/ha) was 100%.
As to `CCn1c(=O)n(-c2cc(SCC(F)(F)F)c(C)cc2F)c(=O)n1C` [Example 122, 1-Ethyl-4-{2-fluoro-4-methyl-5-[(2,2,2-trifluoroethyl)sulfanyl]phenyl}-2-methyl-1,2,4-triazolidine-3,5-dione], the chromatographic logP in data set [1] (setting [3]) was 2.71. In addition, in data set [2] (application rate 500 g/ha), the pest or weed control at 500 g/ha is 90%.
Take `Cn1c(=O)n(C2CC2)c(=O)n1-c1ccc(Br)c(SCC(F)(F)F)c1` [Example 46]: in data set [1], the “logP (HCOOH)” value came to 3.11 and the “logP (neutral)” value came out at 3.05. For the same compound, the efficacy in % in data set [2] (application rate 500 g/ha) is recorded as 100%.
Turning to `Cc1cc(F)c(-n2c(=O)n(C3CC3)c(=O)n2C(C)C)cc1[S+]([O-])CC(F)(F)F` (stereo not drawn) [Example 64], in data set [1], the “logP (HCOOH)” value was found to be 2.51 and the “logP (neutral)” value worked out at 2.45. Moreover, the efficacy in % in data set [2] (application rate 500 g/ha) came to 90%.
Turning to `C#CCn1c(=O)n(-c2cc(SCC(F)(F)F)c(C)cc2F)c(=O)n1C` [Example 121], in data set [1], the “logP (HCOOH)” value came to 2.81. This compound registered an efficacy in % in data set [2] (application rate 500 g/ha) of 100%.
In the case of `CCn1c(=O)n(C(C)(C)C)c(=O)n1-c1ccc(C)c(SCC(F)(F)F)c1` [Example 134], in data set [1], the “logP (HCOOH)” value was determined as 4.32 and the “logP (neutral)” value is listed as 4.27. The same compound returned an efficacy in % in data set [2] (application rate 500 g/ha) of 100%.
On to `Cc1cc(F)c(-n2[nH]c(=O)n(C)c2=O)cc1SCC(F)(F)F` [Example 55], for which, in data set [1], the “logP (HCOOH)” value is listed as 2.09 and the “logP (neutral)” value is on record as 0.60. In addition, the efficacy in % in data set [2] (application rate 500 g/ha) came to 90%.
As for `C=CCn1c(=O)n(C)c(=O)n1-c1ccc(C)c([S+]([O-])CC(F)(F)F)c1` (stereo not drawn) [Example 59], in data set [1], the “logP (HCOOH)” value was determined as 2.03 and the “logP (neutral)” value came out at 2.00. Further, in data set [2] (application rate 500 g/ha), the efficacy in % came to 100%.
Take `C#CCn1c(=O)n(-c2cc([S+]([O-])CC(F)(F)F)c(C)cc2F)c(=O)n1C` (racemic) [Example 123]: the “logP (HCOOH)” value in data set [1] worked out at 1.96. Besides, the efficacy in % in data set [2] (application rate 500 g/ha) came out at 100%.
Take `C=CCn1c(=O)n(-c2ccc(C)c(SCC(F)(F)F)c2)n(-c2ccc(C)c(SCC(F)(F)F)c2)c1=O` [Example 79]: in data set [1], the “logP (HCOOH)” value is 4.86 and the “logP (neutral)” value was 4.67. The compound also registered an efficacy in % in data set [2] (application rate 100 g/ha) of 90%.
On to `CCn1c(=O)n(CC(F)(F)F)n(-c2cc(SCC(F)(F)F)c(C)cc2F)c1=O` [Example 145], for which, in data set [1], the “logP (HCOOH)” value was determined as 3.54 and the “logP (neutral)” value was found to be 3.49. This compound had an efficacy in % in data set [2] (application rate 500 g/ha) of 100%.
`Cc1cc(F)c(N2C(=O)N(C)C(=O)C2C)cc1SCC(F)(F)F` (stereo not drawn) [Example 212]: in data set [1], the “logP (HCOOH)” value was determined as 2.92. In data set [2] (application rate 500 g/ha), this compound gave an efficacy in % of 90%.
As to `CCCCN1CC(=O)N(c2cc([S+]([O-])CC(F)(F)F)c(C)cc2F)C1=O` (stereo not drawn) [Example 203], in data set [1], the “logP (HCOOH)” value was determined as 2.47 and the “logP (neutral)” value was 2.43. Besides, the efficacy in % in data set [2] (application rate 500 g/ha) was 90%.
The corresponding values for `Cc1ccc(-n2c(=O)n(C(C)(C)C)c(=O)n2C(C)C)cc1SCC(F)(F)F` [Example 135] are 4.77, 4.70 and 90%.
The corresponding values for `Cc1cc(F)c(-n2c(=O)n(C3CC3)c(=O)n2CC(F)(F)F)cc1[S+]([O-])CC(F)(F)F` (stereo not drawn) [Example 164] are 2.58, 2.54 and 90%.
For the compound `Cc1cc(F)c(N2C(=O)C(=O)N(CC(F)F)C2=O)cc1SCC(F)(F)F` [Example 101, 1-(2,2-Difluoroethyl)-3-[2-fluoro-4-methyl-5-[(2,2,2-trifluoroethyl)sulfanyl]phenyl]imidazolidine-2,4,5-trione], the chromatographic logP in data set [1] (setting [3]) worked out at 3.22; in data set [1] (setting [4]) it was 1.73. For the same compound, in data set [2] (application rate 500 g/ha), the pest or weed control at 500 g/ha worked out at 100%.
In the case of `Cc1cc(F)c(-n2c(=O)n(C3CC3)c(=O)n2CC(F)(F)F)cc1SCC(F)(F)F` [Example 129], in data set [1], the “logP (HCOOH)” value is listed as 3.48 and the “logP (neutral)” value was determined as 3.43. In data set [2] (application rate 500 g/ha), this compound displayed an efficacy in % of 100%.
In the case of `CCCn1c(=O)n(C2CC2)c(=O)n1-c1cc([S+]([O-])CC(F)(F)F)c(C)cc1F` (stereo not drawn) [Example 172], in data set [1], the “logP (HCOOH)” value worked out at 2.46 and the “logP (neutral)” value is 2.42. In data set [2] (application rate 500 g/ha), this compound came in with an efficacy in % of 90%.
The matching figures for `Cn1c(=O)n(C2CC2)c(=O)n1-c1cc([S+]([O-])CC(F)(F)F)c(Br)cc1F` (stereo not drawn) [Example 72]: 2.24, 2.18 and 90%.
For the compound `CCn1c(=O)n(C)c(=O)n1-c1cc([S+]([O-])CC(F)(F)F)c(C)cc1F` (stereo not drawn) [Example 98], in data set [1], the “logP (HCOOH)” value turned out to be 1.93 and the “logP (neutral)” value is 1.91. In data set [2] (application rate 500 g/ha), the efficacy in % amounted to 90%.
As to `C=CCn1c(=O)n(C2CC2)c(=O)n1-c1cc(SCC(F)(F)F)c(C)cc1F` [Example 130], in data set [1], the “logP (HCOOH)” value was 3.31 and the “logP (neutral)” value is 3.28. Further, in data set [2] (application rate 500 g/ha), the efficacy in % was 100%.
Take `CCn1c(=O)n(C)n(-c2ccc(C)c([S+]([O-])CC(F)(F)F)c2)c1=O` (stereo not drawn) [Example 89]: in data set [1], the “logP (HCOOH)” value came out at 1.96 and the “logP (neutral)” value turned out to be 1.91. The compound also displayed an efficacy in % in data set [2] (application rate 500 g/ha) of 100%.
As to `Cc1cc(F)c(N2C(=O)N(C3CC3)C(=O)C2C)cc1[S+]([O-])CC(F)(F)F` (stereo not drawn) [Example 215], the “logP (HCOOH)” value in data set [1] stood at 2.15. This compound also registered an efficacy in % in data set [2] (application rate 500 g/ha) of 100%.
As for `CCCCN1CC(=O)N(c2cc(SCC(F)(F)F)c(C)cc2F)C1=O` [Example 202], in data set [1], the “logP (HCOOH)” value worked out at 3.39 and the “logP (neutral)” value stood at 3.35. In addition, the efficacy in % in data set [2] (application rate 500 g/ha) is reported as 100%.
For the compound `Cc1cc(C)c(N2C(=O)CSC2=NC2CC2)cc1SCC(F)(F)F` [Example 112], in data set [1], the “logP (HCOOH)” value came out at 3.65 and the “logP (neutral)” value amounted to 3.65. The efficacy in % in data set [2] (application rate 100 g/ha) was 100%.
Consider `Cc1cc(C)c(N2C(=O)C(=O)N(CC(F)(F)F)C2=S)cc1SCC(F)(F)F` [Example 187], for which, in data set [1], the “logP (HCOOH)” value turned out to be 4.21. In data set [2] (application rate 500 g/ha), this compound registered an efficacy in % of 90%.
As to `Cc1ccc(-n2c(=O)n(C(C)(C)C)c(=O)n2C)cc1[S+]([O-])CC(F)(F)F` (stereo not drawn) [Example 139], in data set [1], the “logP (HCOOH)” value came out at 2.71 and the “logP (neutral)” value came out at 2.70. In data set [2] (application rate 500 g/ha), this compound had an efficacy in % of 100%.
